From patent US20100086615A1, “AGENT FOR TREATMENT OF PULMONARY DISEASE” (KYUSHU UNIVERSITY, NATIONAL UNIVERSITY CORPORATION, priority 2007, published 2010)

Test system: LPS-induced acute lung injury mice
Assay: Intratracheal administration in LPS-induced acute lung injury model; cells counted in bronchoalveolar lavage fluid
Assay type: in vivo, mice (male BALB/c)
Settings: non-polymer-incorporated solution in saline (50 μL), intratracheal, 0.2, 2 or 20 μg/body; n=8

Structure (SMILES): O=C([O-])C[C@H](O)C[C@H](O)/C=C/c1c(C2CC2)nc2ccccc2c1-c1ccc(F)cc1.O=C([O-])C[C@H](O)C[C@H](O)/C=C/c1c(C2CC2)nc2ccccc2c1-c1ccc(F)cc1.[Ca+2] [pitavastatin calcium]
- Effect of inhibiting migration of inflammatory cells (result in words): did not exhibit the effect of inhibiting migration of inflammatory cells
